The target in one series is B*3501 (Homo sapiens, UniProt P01889, A329T/A93T/A95T/C349S/D201E/D98Y/E176V/E187L/E204Q/E69T/I218V/K202T/L119I/Q94N/R155S/R180L/S121R/S35A/S48A/T118I/V127L/V306I/V36M/Y140S/Y91F). Put plainly: Class I peptide-binding assay, B*3501.
In another series the target is B*5401 (Homo sapiens, UniProt P01889, A329T/C349S/D138N/D201E/E176V/E187T/E204Q/E69G/I76V/K202T/L119W/R155S/R180L/S121T/S35A/S48A/V127L/V306I/V36M/Y140L). The series is described as follows: Class I peptide-binding assay, B*5401. The following applies: Table 17a.
A further series concerns melanoma patients. Particulars: melanoma patients vaccinated with peptide-pulsed DC or the peptide alone; cited from earlier work.
For series [1], the system named is cervical cancer patients. Particulars: cited from earlier work.
For series [2], the system named is cervical cancer patients. The following applies: two weeks after vaccination; PBMC stimulated in vitro with 5 µg/ml PADRE peptide; proliferation index > 5; cited from earlier work.
For the next series, the target named is HLA-A*0101 (Homo sapiens, UniProt P04439, A114D/A174V/A182V/D101N/D185E/E176A/E190D/L180R/Q94H/R68K/S129P/T187R/V100A/V91M/W191G). The series is described as follows: Class I peptide-binding assay, A*0101. The following applies: Table 18a, CEA-derived A1 binders.
A further series deals with HLA-A*2402 (Homo sapiens, UniProt P04439, D101N/D140Y/D185E/E176V/E190D/F33S/G103R/G107R/I119L/I121M/I306V/K335N/L105A/L180Q/L300P/N151K/N90K/Q86E/Q94H/R106L/R138H/R89G/T104I/T345S/V100E/W191G/Y123F). Put plainly: Class I peptide-binding assay, A*2402. Particulars: Table 19a, CEA-derived A24 binders.

Consider 9 compounds from EP1903056A2, “HLA-A1, -A2 -A3, -A24, -B7, and -B44 tumor associated antigen peptides and compositions” (priority 2002, dated 2004).

The IC50 is the concentration that gives 50% inhibition. A high value points to weaker potency.

Structures are written as SMILES.

`CC[C@H](C)[C@H](N)C(=O)N1CCC[C@H]1C(=O)N[C@@H](Cc1c[nH]c2ccccc12)C(=O)N[C@@H](CCC(N)=O)C(=O)N[C@@H](CCCNC(=N)N)C(=O)N[C@@H](CC(C)C)C(=O)N[C@@H](CC(C)C)C(=O)N[C@@H](CC(C)C)C(=O)N[C@H](C(=O)N[C@H](C(=O)O)[C@@H](C)CC)[C@@H](C)O` [CEA.13I10] yielded an IC50 on B*3501 (Table 17a) of 10000 nM. Take `CC[C@H](C)[C@H](N)C(=O)N1CCC[C@H]1C(=O)N[C@@H](Cc1c[nH]c2ccccc12)C(=O)N[C@@H](CCC(N)=O)C(=O)N[C@@H](CCCNC(=N)N)C(=O)N[C@@H](CC(C)C)C(=O)N[C@@H](CC(C)C)C(=O)N[C@@H](CC(C)C)C(=O)N[C@H](C(=O)N[C@@H](C)C(=O)O)[C@@H](C)O` [CEA.13]: the IC50 at B*5401 was 32 nM; at B*3501 (Table 17a), 10000 nM. As to `CC[C@H](C)[C@H](NC(=O)[C@H](CO)NC(=O)[C@H](Cc1ccc(O)cc1)NC(=O)CNC(=O)[C@H](Cc1ccccc1)NC(=O)[C@H](CC(C)C)NC(=O)[C@H](Cc1c[nH]cn1)NC(=O)[C@H](CCC(N)=O)NC(=O)[C@@H]1CCCN1C(=O)[C@@H](N)CC(C)C)C(=O)O` [CEA.58I10], the IC50 on B*3501 (Table 17a) was 10000 nM. Consider `CC[C@H](C)[C@H](NC(=O)[C@@H]1CCCN1C(=O)[C@H](CC(C)C)NC(=O)[C@@H]1CCCN1C(=O)CNC(=O)[C@H](CCC(=O)O)NC(=O)[C@H](CCCNC(=N)N)NC(=O)[C@@H]1CCCN1C(=O)[C@H](CO)NC(=O)[C@@H]1CCCN1C(=O)[C@@H]1CCCN1)C(=O)O` [Her2/neu.1149.I11], for which the IC50 on B*3501 (Table 17b) amounted to 1000 nM. On to `CC[C@H](C)[C@H](NC(=O)[C@@H]1CCCN1C(=O)[C@H](CC(=O)O)NC(=O)[C@@H](NC(=O)[C@@H](N)CCC(=O)O)C(C)C)C(=O)NCC(=O)N[C@@H](Cc1c[nH]cn1)C(=O)N[C@@H](CC(C)C)C(=O)N[C@@H](Cc1ccc(O)cc1)C(=O)O` [MAGE3.168], for which the “tumor regression in vaccinated patients” value with melanoma patients is “tumor regression was observed”.

With `CC(C)C[C@H](NC(=O)[C@@H](NC(=O)[C@H](Cc1c[nH]c2ccccc12)NC(=O)[C@H](C)NC(=O)[C@H](C)NC(=O)[C@@H](NC(=O)[C@H](CC1CCCCC1)NC(=O)[C@H](CCCCN)NC(=O)[C@@H](C)N)C(C)C)[C@@H](C)O)C(=O)N[C@@H](CCCCN)C(=O)N[C@@H](C)C(=O)N[C@@H](C)C(=O)N[C@H](C)C(N)=O` [PADRE, aKXVAAWTLKAAa-NH2], the responding patients in the series on cervical cancer patients [1] (95% interval 10-65%) was 33%. Besides, the safety in trial entry with cervical cancer patients [1] (patients with recurrent or residual cervical carcinoma) is “favorable safety profile”. With `CC(C)C[C@H](NC(=O)[C@@H](NC(=O)[C@H](Cc1c[nH]c2ccccc12)NC(=O)[C@H](C)NC(=O)[C@H](C)NC(=O)[C@@H](NC(=O)[C@H](CC1CCCCC1)NC(=O)[C@H](CCCCN)NC(=O)[C@@H](C)N)C(C)C)[C@@H](C)O)C(=O)N[C@@H](CCCCN)C(=O)N[C@@H](C)C(=O)N[C@@H](C)C(=O)N[C@H](C)C(N)=O` [aKXVAAWTLKAAa-NH2], the “patients displaying PADRE-specific proliferation” value in the series with cervical cancer patients [2] was 4/12.

As for `CC[C@H](C)[C@H](N)C(=O)N[C@H](C(=O)N[C@@H](CCC(=O)O)C(=O)N[C@@H](CCCCN)C(=O)N[C@@H](CC(N)=O)C(=O)N[C@@H](CO)C(=O)NCC(=O)N[C@@H](CC(C)C)C(=O)N[C@@H](Cc1ccc(O)cc1)C(=O)O)[C@@H](C)O` [compound 179], the IC50 at HLA-A*0101 came to 641 nM. `CC(C)C[C@H](NC(=O)[C@H](CO)NC(=O)[C@H](CCC(N)=O)NC(=O)CNC(=O)[C@H](CC(N)=O)NC(=O)[C@@H](NC(=O)[C@H](Cc1c[nH]c2ccccc12)NC(=O)[C@H](Cc1c[nH]c2ccccc12)NC(=O)[C@@H](N)CC(C)C)C(C)C)C(=O)O` [compound 283]: the IC50 at HLA-A*2402 turned out to be 1460 nM.
